From ChEMBL document CHEMBL4052680, “Semi-quantitative models for identifying potent and selective transthyretin amyloidogenesis inhibitors” (Bioorg Med Chem Lett, 2017) come the findings set out here.

The species entered for assay [1] is Rattus norvegicus. As to the kind of experiment: Displacement of [125I]-triiodothyronine from thyroid hormone receptor in rat liver membrane homogenates assessed as relative T3 displacement incubated for 18 hrs by scintillation counting method relative to control. It counts as cell membranes. A general note: Displacement assays read how much labelled ligand stays bound in the presence of the test substance.

The species entered for assay [2] is Rattus norvegicus. Briefly: Displacement of [125I]-triiodothyronine from thyroid hormone receptor in rat liver membrane homogenates incubated for 18 hrs by scintillation counting method. It counts as cell membranes. The arrangement: concentration or dose not given beside the values. The note with it: concentration not given here.

As usually defined, the inhibition is the relative decrease from the control value, in per cent. Turning to `Oc1c(Br)cc(CCc2cccc(F)c2)cc1Br`, the relative binding affinity (RBA) in the assay filed under Rattus norvegicus [1] worked out at 0.19. In the assay listed under Rattus norvegicus [2], this compound showed an inhibition of 19%.
On the same counts, the results for `Oc1cccc(/C=C/c2cc(Br)c(O)c(Br)c2)c1` are 0.64 and 64%.
On the same counts, the results for `Oc1c(Br)cc(CCc2c(F)cccc2F)cc1Br` are 0.61 and 61%.
On the same counts, the results for `O=[N+]([O-])c1ccccc1/C=C/c1cc(Br)c(O)c(Br)c1` are 0.21 and 21%.
Regarding `COc1cccc(/C=C/c2cc(Br)c(N)c(Br)c2)c1`, in the assay listed under Rattus norvegicus [1], the relative binding affinity (RBA) amounted to 0.01. Moreover, in the assay filed under Rattus norvegicus [2], the inhibition came to 1%.
Take `Nc1ccc(/C=C/c2cc(Br)c(O)c(Br)c2)cc1`: the relative binding affinity (RBA) in the assay listed under Rattus norvegicus [1] came to 0. Besides, in the assay listed under Rattus norvegicus [2], the inhibition was determined as 0%.
As to `COc1ccccc1C(=O)Nc1cc(Br)cc(Br)c1`, in the assay filed under Rattus norvegicus [1], the relative binding affinity (RBA) stood at 0.1. Besides, in the assay listed under Rattus norvegicus [2], the inhibition worked out at 10%.
On the same counts, the results for `Cc1cccc(C)c1CCc1cc(Br)c(O)c(Br)c1` are 0.12 and 12%.
On the same counts, the results for `Oc1c(Br)cc(/C=C/c2ccccc2I)cc1Br` are 0.55 and 55%.
On the same counts, the results for `COc1cccc(OC)c1/C=C/c1cc(Br)c(N)c(Br)c1` are 0.02 and 2%.
Take `Oc1c(I)cc(-c2nc3cccc(Cl)c3o2)cc1I`: the relative binding affinity (RBA) in the assay listed under Rattus norvegicus [1] is 0.92. Moreover, the inhibition in the assay listed under Rattus norvegicus [2] was determined as 92%.
As for `Cc1ccccc1/C=C/c1cc(Br)c(O)c(Br)c1`, the relative binding affinity (RBA) in the assay listed under Rattus norvegicus [1] was determined as 0.44. The inhibition in the assay filed under Rattus norvegicus [2] is 44%.
As to `Oc1c(Br)cc(Oc2cccc3oc4ccccc4c23)cc1Br`, the relative binding affinity (RBA) in the assay listed under Rattus norvegicus [1] is 0.94. For the same compound, the inhibition in the assay filed under Rattus norvegicus [2] came out at 94%.
On the same counts, the results for `O=C(O)c1ccc2nc(-c3cc(Cl)cc(Cl)c3)oc2c1` are 0 and 0%.
On the same counts, the results for `Cc1cc(C)cc(-c2cccc3oc4ccccc4c23)c1` are 0.02 and 2%.
With `COc1cccc(CCc2cc(Br)c(O)c(Br)c2)c1`, in the assay filed under Rattus norvegicus [1], the relative binding affinity (RBA) amounted to 0.05. For the same compound, in the assay filed under Rattus norvegicus [2], the inhibition was 5%.
On the same counts, the results for `O=C(O)c1ccc(C(=O)Nc2cc(Br)cc(Br)c2)cc1` are 0.13 and 13%.
On the same counts, the results for `COc1cccc(OC)c1CCc1cc(Br)c(O)c(Br)c1` are 0 and 0%.
On the same counts, the results for `Oc1c(Br)cc(-c2nc3cccc(Cl)c3o2)cc1Br` are 0.62 and 62%.
On to `Clc1cccc(Cl)c1/C=C/c1cc(Br)cc(Br)c1`, for which the relative binding affinity (RBA) in the assay listed under Rattus norvegicus [1] is 0.13. Further, in the assay filed under Rattus norvegicus [2], the inhibition came to 13%.
On the same counts, the results for `Clc1cccc(Cl)c1COc1cc(Br)cc(Br)c1` are 0.04 and 4%.
On the same counts, the results for `Cc1cccc(C)c1/C=C/c1cc(Br)c(O)c(Br)c1` are 0.42 and 42%.
On the same counts, the results for `COc1ccccc1NC(=O)Nc1cc(Br)c(O)c(Br)c1` are 0.14 and 14%.
Consider `Oc1cc(O)cc(/C=C/c2cc(Br)c(O)c(Br)c2)c1`, for which, in the assay listed under Rattus norvegicus [1], the relative binding affinity (RBA) amounted to 0.66. Further, in the assay filed under Rattus norvegicus [2], the inhibition was determined as 66%.
On the same counts, the results for `Cc1cccc(/C=C/c2cc(Br)c(O)c(Br)c2)c1` are 0.35 and 35%.
On the same counts, the results for `COc1ccccc1CCc1cc(Br)c(O)c(Br)c1` are 0 and 0%.
Regarding `Oc1c(I)cc(/C=C/c2c(Cl)cccc2Cl)cc1I`, the relative binding affinity (RBA) in the assay listed under Rattus norvegicus [1] was found to be 0.92. In the assay listed under Rattus norvegicus [2], this compound gave an inhibition of 92%.
As to `Cc1cc(Oc2cccc3oc4ccccc4c23)cc(C)c1O`, the relative binding affinity (RBA) in the assay listed under Rattus norvegicus [1] turned out to be 0. In the assay listed under Rattus norvegicus [2], this compound came in with an inhibition of 0%.
On the same counts, the results for `Oc1ccc(/C=C/c2cc(Br)c(O)c(Br)c2)cc1` are 0.5 and 50%.
`Oc1c(Br)cc(/C=C/c2ccc(F)cc2)cc1Br`: the relative binding affinity (RBA) in the assay listed under Rattus norvegicus [1] was 0.4. This compound showed an inhibition in the assay listed under Rattus norvegicus [2] of 40%.
On the same counts, the results for `COc1ccccc1/C=C/c1cc(Br)c(O)c(Br)c1` are 0.32 and 32%.
On the same counts, the results for `Oc1c(Br)cc(/C=C/c2ccccc2C(F)(F)F)cc1Br` are 0.69 and 69%.
On the same counts, the results for `COc1ccc(/C=C/c2cc(Br)c(O)c(Br)c2)cc1` are 0.16 and 16%.
`Oc1c(Br)cc(-c2cccc3oc4ccccc4c23)cc1Br`: in the assay filed under Rattus norvegicus [1], the relative binding affinity (RBA) was 0.36. Also, in the assay listed under Rattus norvegicus [2], the inhibition is 36%.
On the same counts, the results for `Nc1cccc(/C=C/c2cc(Br)c(N)c(Br)c2)c1` are 0.03 and 3%.
Turning to `O=[N+]([O-])c1ccccc1COc1cc(Br)cc(Br)c1`, the relative binding affinity (RBA) in the assay filed under Rattus norvegicus [1] was 0. This compound also returned an inhibition in the assay filed under Rattus norvegicus [2] of 0%.
On the same counts, the results for `Cc1cc(CCc2c(Cl)cccc2Cl)cc(C)c1O` are 0.4 and 40%.
On the same counts, the results for `O=[N+]([O-])c1ccccc1S(=O)(=O)Nc1cc(Cl)c(O)c(Cl)c1` are 0.07 and 7%.
On the same counts, the results for `Cc1cccc(CCc2cc(Br)c(O)c(Br)c2)c1` are 0.04 and 4%.
As to `Nc1ccc(CCc2cc(Br)c(O)c(Br)c2)cc1`, in the assay listed under Rattus norvegicus [1], the relative binding affinity (RBA) turned out to be 0. In addition, in the assay listed under Rattus norvegicus [2], the inhibition was determined as 0%.
On the same counts, the results for `COc1cccc(/C=C/c2cc(Br)c(O)c(Br)c2)c1` are 0 and 0%.
For `Brc1cc(Br)cc(Oc2cccc3oc4ccccc4c23)c1`, in the assay filed under Rattus norvegicus [1], the relative binding affinity (RBA) turned out to be 0. In the assay filed under Rattus norvegicus [2], this compound displayed an inhibition of 0%.
On the same counts, the results for `Oc1c(Br)cc(NCc2ccccc2)cc1Br` are 0.02 and 2%.
As for `Cc1cc(-c2cccc3oc4ccccc4c23)cc(C)c1O`, the relative binding affinity (RBA) in the assay filed under Rattus norvegicus [1] is 0. Besides, in the assay filed under Rattus norvegicus [2], the inhibition came to 0%.
On the same counts, the results for `Cc1cc(/C=C/c2c(Cl)cccc2Cl)cc(C)c1O` are 0.41 and 41%.
On the same counts, the results for `Nc1ccc(/C=C/c2cc(Br)c(N)c(Br)c2)cc1` are 0 and 0%.
On the same counts, the results for `Brc1cc(Br)cc(-c2cccc3oc4ccccc4c23)c1` are 0 and 0%.
Turning to `Oc1c(Br)cc(CCc2c(Cl)cccc2Cl)cc1Br`, in the assay listed under Rattus norvegicus [1], the relative binding affinity (RBA) came out at 0.45. In the assay listed under Rattus norvegicus [2], this compound yielded an inhibition of 45%.
On the same counts, the results for `Nc1cccc(CCc2cc(Br)c(O)c(Br)c2)c1` are 0 and 0%.
Consider `Oc1c(Br)cc(CCc2ccccc2C(F)(F)F)cc1Br`, for which the relative binding affinity (RBA) in the assay filed under Rattus norvegicus [1] worked out at 0.08. In the assay listed under Rattus norvegicus [2], this compound gave an inhibition of 8%.
On the same counts, the results for `Oc1c(Br)cc(/C=C/c2c(Br)cccc2Br)cc1Br` are 0.35 and 35%.
On the same counts, the results for `Oc1c(Br)cc(/C=C/c2cccc(I)c2)cc1Br` are 0.45 and 45%.
On the same counts, the results for `Cc1cc(C)cc(Oc2cccc3oc4ccccc4c23)c1` are 0 and 0%.
`Nc1cccc(/C=C/c2cc(Br)c(O)c(Br)c2)c1`: the relative binding affinity (RBA) in the assay listed under Rattus norvegicus [1] stood at 0. Moreover, the inhibition in the assay filed under Rattus norvegicus [2] is 0%.
On the same counts, the results for `Cc1cc(-c2cc(C)c(O)c(C)c2)cc(C)c1O` are 0.11 and 11%.
On the same counts, the results for `Cc1cc(C)cc(Nc2cccc3oc4ccccc4c23)c1` are 0 and 0%.
On the same counts, the results for `Oc1c(Br)cc(/C=C/c2c(Cl)cccc2Cl)cc1Br` are 0.7 and 70%.
Consider `Nc1ccccc1/C=C/c1cc(Br)c(O)c(Br)c1`, for which the relative binding affinity (RBA) in the assay listed under Rattus norvegicus [1] worked out at 0.15. The same compound returned an inhibition in the assay filed under Rattus norvegicus [2] of 15%.
On the same counts, the results for `Oc1ccccc1/C=C/c1cc(Br)c(O)c(Br)c1` are 0.22 and 22%.
On to `Cc1cc(C)cc(/C=C/c2cc(Br)c(O)c(Br)c2)c1`, for which, in the assay listed under Rattus norvegicus [1], the relative binding affinity (RBA) came out at 0.2. Besides, the inhibition in the assay filed under Rattus norvegicus [2] came out at 20%.
On the same counts, the results for `Cc1cc(-c2nc3c([N+](=O)[O-])cccc3o2)cc(C)c1O` are 0.16 and 16%.
On the same counts, the results for `O=[N+]([O-])c1ccccc1CCc1cc(Br)c(O)c(Br)c1` are 0.03 and 3%.
On the same counts, the results for `Oc1c(Br)cc(/C=C/c2ccccc2Br)cc1Br` are 0.69 and 69%.
In the case of `COc1cccc(OC)c1/C=C/c1cc(Br)c(O)c(Br)c1`, the relative binding affinity (RBA) in the assay listed under Rattus norvegicus [1] turned out to be 0. In the assay listed under Rattus norvegicus [2], this compound yielded an inhibition of 0%.
